Values quoted from earlier work as cited in patent publication US9636301B2, “In vitro release assay for liposome encapsulated vincristine” (ARBUTUS BIOPHARMA CORPORATION, priority 2012, dated 2017).

Settings: water

22-oxovincaleukoblastine [Vincristine sulfate]
solubility: soluble in water
